# Data reported in US20160159814A1, “GLYCINE TRANSPORTER INHIBITOR” (TAISHO PHARMACEUTICAL CO., LTD., priority 2013, published 2016).
# pIC50: −log10 of the molar value.
# Biological target: T1, human type 1 glycine transporter (GlyT1) (Homo sapiens, UniProt P48067)
# T1 construct: T98G cells (glioma cells) expressing human type 1 glycine transporter (GlyT1) were used; endogenous in cells; host or cells: T98G cells (human glioma cells)
# T1 sequence (P48067 1-706): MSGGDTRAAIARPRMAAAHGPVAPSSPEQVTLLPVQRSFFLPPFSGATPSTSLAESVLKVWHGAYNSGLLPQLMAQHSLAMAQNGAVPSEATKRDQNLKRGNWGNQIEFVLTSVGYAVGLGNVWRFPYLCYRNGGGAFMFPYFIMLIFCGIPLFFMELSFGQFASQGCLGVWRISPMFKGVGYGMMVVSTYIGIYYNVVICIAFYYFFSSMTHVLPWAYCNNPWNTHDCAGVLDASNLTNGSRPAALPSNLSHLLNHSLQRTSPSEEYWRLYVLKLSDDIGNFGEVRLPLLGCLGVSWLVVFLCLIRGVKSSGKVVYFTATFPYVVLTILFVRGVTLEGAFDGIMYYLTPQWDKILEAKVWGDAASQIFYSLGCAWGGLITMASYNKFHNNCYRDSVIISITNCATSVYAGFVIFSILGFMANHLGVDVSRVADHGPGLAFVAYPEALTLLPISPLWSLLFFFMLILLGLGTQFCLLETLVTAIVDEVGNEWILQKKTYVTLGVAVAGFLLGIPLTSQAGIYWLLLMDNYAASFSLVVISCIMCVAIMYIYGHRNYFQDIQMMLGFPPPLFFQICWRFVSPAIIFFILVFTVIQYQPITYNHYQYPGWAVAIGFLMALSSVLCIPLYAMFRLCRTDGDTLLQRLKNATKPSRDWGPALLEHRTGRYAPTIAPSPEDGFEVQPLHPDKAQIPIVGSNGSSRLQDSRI
# Test: Glycine uptake inhibition experiment ([3H] glycine uptake in T98G cells expressing GlyT1)
# Type: cell-based
# Conditions: glycine uptake inhibition
# Protocol: Glycine Uptake Inhibition Experiment
# A glycine uptake experiment was conducted in accordance with the method published in Neuron, 8, 927-935, 1992. In the experiment, T98G cells (glioma cells) expressing human type 1 glycine transporter (GlyT1) were used. The T98G cells were seeded in a 96-well plate at 2.0×10^4 cells/well and cultured overnight in a CO2 incubator. The test substance was dissolved in a 100% DMSO solution and then dissolved in a 10 mM HEPES buffer solution (pH 7.4) containing 150 mM sodium chloride, 1 mM calcium chloride, 5 mM potassium chloride, 1 mM magnesium chloride, 10 mM glucose and 0.2% bovine serum albumin. After removing the cell culture medium, the test substance was subjected to a 10-min pretreatment. Subsequently, the test substance and [^3H] glycine (final concentration: 250 nM) were added to the cells and reaction was performed at room temperature for 15 minutes. After the end of the reaction, the extracellular fluid was aspirated with a manifold to remove excess labeled glycine present outside the cells, and then the cells were lysed with a 0.5 M aqueous sodium hydroxide solution. The glycine content in the cells was determined by measuring the radioactivity in the cell lysate with a liquid scintillation counter. Glycine uptake in the presence of 10 μM ALX5407 was defined as non-specific uptake, and the value calculated by subtracting the amount of the non-specific uptake from the total uptake in the absence of 10 μM ALX5407 was defined as specific uptake. In addition, glycine uptake inhibitory activity (IC50 value) was calculated from an inhibition curve at the concentrations of each test substance ranging from 10^−9 to 10^−5 M. It should be noted that ALX5407 is an HCl salt of N-[(3R)-3-([1,1′-biphenyl]-4-yloxy)-3-(4-fluorophenyl)propyl]-N-methylglycine.
row,SMILES,pIC50
1,"CC(O)c1cccc2c1C(F)(F)C(=O)N2Cc1cccc(Cl)n1 (single isomer, unassigned) [Compound 5, 1-[(6-chloropyridin-2-yl)methyl]-3,3-difluoro-4-(1-hydroxyethyl)-1,3-dihydro-2H-indol-2-one]",6.52
2,"CC(O)c1cccc2c1C(F)(F)C(=O)N2Cc1cncc(Cl)c1 (single isomer, unassigned) [Compound 6, 1-[(5-chloropyridin-3-yl)methyl]-3,3-difluoro-4-(1-hydroxyethyl)-1,3-dihydro-2H-indol-2-one]",5.43
3,"O=C1N(Cc2cccc(Cl)n2)c2cccc(C(O)C(F)(F)F)c2C1(F)F (single isomer, unassigned) [Compound 8, 1-[(6-chloropyridin-2-yl)methyl]-3,3-difluoro-4-(2,2,2-trifluoro-1-hydroxyethyl)-1,3-dihydro-2H-indol-2-one]",6.10
4,"N#Cc1cccc(CN2C(=O)C(F)(F)c3c(C(O)C(F)(F)F)cccc32)n1 (single isomer, unassigned) [Compound 18, 6-{[3,3-difluoro-2-oxo-4-(2,2,2-trifluoro-1-hydroxyethyl)-2,3-dihydro-1H-indol-1-yl]methyl}pyridine-2-carbonitrile]",5.48
5,"N#Cc1cc(CN2C(=O)C(F)(F)c3c(C(O)C(F)(F)F)cccc32)ccn1 (single isomer, unassigned) [Compound 20, 4-{[3,3-difluoro-2-oxo-4-(2,2,2-trifluoro-1-hydroxyethyl)-2,3-dihydro-1H-indol-1-yl]methyl}pyridine-2-carbonitrile]",5.54
6,"O=C1N(Cc2cncc(Cl)c2)c2cccc(C(O)C(F)(F)F)c2C1(F)F (single isomer, unassigned) [Compound 22, 1-[(5-chloropyridin-3-yl)methyl]-3,3-difluoro-4-(2,2,2-trifluoro-1-hydroxyethyl)-1,3-dihydro-2H-indol-2-one]",5.72
7,"CC(O)c1cccc2c1C(F)(F)C(=O)N2Cc1ccnc(Cl)c1 (single isomer, unassigned) [Compound 34, 1-[(2-chloropyridin-4-yl)methyl]-3,3-difluoro-4-(1-hydroxyethyl)-1,3-dihydro-2H-indol-2-one]",5.34
8,"O=C1N(Cc2ccnc(Cl)c2)c2cccc(C(O)C(F)F)c2C1(F)F (single isomer, unassigned) [Compound 35]",6.55
9,"O=C1N(Cc2cncc(Cl)c2)c2ccc(F)c(C(O)C(F)(F)F)c2C1(F)F (single isomer, unassigned) [Compound 49, 1-[(5-chloropyridin-3-yl)methyl]-3,3,5-trifluoro-4-(2,2,2-trifluoro-1-hydroxyethyl)-1,3-dihydro-2H-indol-2-one]",5.82
10,"O=C1N(Cc2cncc(Cl)c2)c2ccc(F)c(C(O)C(F)(F)F)c2C1(F)F (single isomer, unassigned) [Compound 50, 1-[(5-chloropyridin-3-yl)methyl]-3,3,5-trifluoro-4-(2,2,2-trifluoro-1-hydroxyethyl)-1,3-dihydro-2H-indol-2-one]",6.77
11,"CC(c1cccc(Cl)n1)N1C(=O)C(F)(F)c2c([C@H](C)O)cccc21 (single isomer, unassigned) [Compound 52]",6.48
12,"CC(c1cccc(Cl)n1)N1C(=O)C(F)(F)c2c([C@H](C)O)cccc21 (single isomer, unassigned) [Compound 53]",6.85
13,"N#Cc1cc(CN2C(=O)C(F)(F)c3c(C(O)C(F)F)cccc32)ccn1 (single isomer, unassigned) [Compound 109, 4-{[4-(2,2-difluoro-1-hydroxyethyl]-3,3-difluoro-2-oxo-2,3-dihydro-1H-indol-1-yl]methyl}pyridine-2-carbonitrile]",7.06
14,"N#Cc1cc(CN2C(=O)C(F)(F)c3c(C(O)C(F)F)cccc32)ccn1 (single isomer, unassigned) [Compound 110, 4-{[4-(2,2-difluoro-1-hydroxyethyl)-3,3-difluoro-2-oxo-2,3-dihydro-1H-indol-1-yl]methyl}pyridine-2-carbonitrile]",5.68
15,"O=C1N(Cc2cncc(Cl)c2)c2ccc(F)c(C(O)C(F)F)c2C1(F)F (single isomer, unassigned) [Compound 136]",5.77

# The next compounds have a higher pIC50 than those just listed; values first:
row,pIC50,SMILES
1,8.19,"CC(O)c1cccc2c1C(F)(F)C(=O)N2Cc1cccc(Cl)n1 (single isomer, unassigned) [Compound 4]"
2,7.85,"CC(O)c1cccc2c1C(F)(F)C(=O)N2Cc1cncc(Cl)c1 (single isomer, unassigned) [Compound 7, 1-[(5-chloropyridin-3-yl)methyl]-3,3-difluoro-4-(1-hydroxyethyl)-1,3-dihydro-2H-indol-2-one]"
3,7.77,"O=C1N(Cc2cccc(Cl)n2)c2cccc(C(O)C(F)(F)F)c2C1(F)F (single isomer, unassigned) [Compound 9, 1-[(6-chloropyridin-2-yl)methyl]-3,3-difluoro-4-(2,2,2-trifluoro-1-hydroxyethyl)-1,3-dihydro-2H-indol-2-one]"
4,7.22,"N#Cc1cccc(CN2C(=O)C(F)(F)c3c(C(O)C(F)(F)F)cccc32)n1 (single isomer, unassigned) [Compound 19, 6-{[3,3-difluoro-2-oxo-4-(2,2,2-trifluoro-1-hydroxyethyl)-2,3-dihydro-1H-indol-1-yl]methyl}pyridine-2-carbonitrile]"
5,7.15,"N#Cc1cc(CN2C(=O)C(F)(F)c3c(C(O)C(F)(F)F)cccc32)ccn1 (single isomer, unassigned) [Compound 21, 4-{[3,3-difluoro-2-oxo-4-(2,2,2-trifluoro-1-hydroxyethyl)-2,3-dihydro-1H-indol-1-yl]methyl}pyridine-2-carbonitrile]"
6,7.42,"O=C1N(Cc2cncc(Cl)c2)c2cccc(C(O)C(F)(F)F)c2C1(F)F (single isomer, unassigned) [Compound 23, 1-[(5-chloropyridin-3-yl)methyl]-3,3-difluoro-4-(2,2,2-trifluoro-1-hydroxyethyl)-1,3-dihydro-2H-indol-2-one]"
7,7.74,"CC(O)c1cccc2c1C(F)(F)C(=O)N2Cc1ccnc(Cl)c1 (single isomer, unassigned) [Compound 33, 1-[(2-chloropyridin-4-yl)methyl]-3,3-difluoro-4-(1-hydroxyethyl)-1,3-dihydro-2H-indol-2-one]"
8,7.89,"O=C1N(Cc2ccnc(Cl)c2)c2cccc(C(O)C(F)F)c2C1(F)F (single isomer, unassigned) [Compound 36, 1-[(2-chloropyridin-4-yl)methyl]-4-(2,2-difluoro-1-hydroxyethyl)-3,3-difluoro-1,3-dihydro-2H-indol-2-one]"
9,7.24,"O=C1N(Cc2cncc(Cl)c2)c2cccc(C(O)C(F)F)c2C1(F)F (single isomer, unassigned) [Compound 120, 1-[(5-chloropyridin-3-yl)methyl]-4-(2,2-difluoro-1-hydroxyethyl)-3,3-difluoro-1,3-dihydro-2H-indol-2-one]"
10,8.10,"O=C1N(Cc2cccc(Cl)n2)c2cccc(C(O)C(F)F)c2C1(F)F (single isomer, unassigned) [Compound 126, 1-[(6-chloropyridin-2-yl)methyl]-4-(2,2-difluoro-1-hydroxyethyl)-3,3-difluoro-1,3-dihydro-2H-indol-2-one]"
11,7.24,"O=C1N(Cc2cncc(Cl)c2)c2ccc(F)c(C(O)C(F)F)c2C1(F)F (single isomer, unassigned) [Compound 135, 1-[(5-chloropyridin-3-yl)methyl]-4-(2,2-difluoro-1-hydroxyethyl)-3,3,5-trifluoro-1,3-dihydro-2H-indol-2-one]"
12,7.32,"O=C1N(Cc2cnc3ccccc3c2)c2cccc(C(O)C(F)F)c2C1(F)F (single isomer, unassigned) [Compound 143, 4-(2,2-difluoro-1-hydroxyethyl)-3,3-difluoro-1-(quinolin-3-ylmethyl)-1,3-dihydro-2H-indol-2-one]"
